Values after ≈ are worked out from the molar mass of the structure shown.
Key:
[1] = tested on: Candida tropicalis ATCC 13803; assay: minimum inhibiting concentration, microtitration in liquid medium, C. tropicalis; format: cell-based; details: ATCC13803, RPMI + 20% foetal calf serum, overnight, inoculum 10^5 to 10^6 organisms/ml
Method: (§1) The activity of the new derivatives according to the invention was tested in vitro by determining the minimum inhibiting concentration (MIC) of the molecules and their fungicidal (minimum fungicidal concentration MFC) or bactericidal (minimum bactericidal concentration MBC) activity. MFC and MBC are defined as the minimum dose which kills 99.9% of the organisms contained in the inoculum. Two species of yeasts pathogenic to man were used: Candida albicans ATCCe 10231 and Candida tropicalis ATCC 13803. Two species of bacteria were included in the screening: Staphylococcus aureus ATCC 25923 and Salmonella typhimurium LT2, strain Demerec. The MIC is determined after culturing overnight in a liquid medium, by the microtitration method in dishes containing 96 wells over a concentration range of 100 μM to 0.0008 μM. The inoculum contains 10^5 to 10^6 organisms/ml. The culture media consist on the one hand of RPMI to which 20% of foetal calf serum (inactivated for one hour at 56°) has been added in order to determine the fungistatic activity and Mueller-Hinton agar in order to determine the bacteriostatic power of the newly synthesized molecules on the other. The MFC and MBC for each of these molecules are obtained by subculturing a sample containing 10^3 organisms from each well giving negative results for the growth of the organisms, in a solid medium consisting of YM agar (yeasts) or Mueller-Hinton agar (bacteria) overnight at 37°.

[2] = tested on: Staphylococcus aureus ATCC 25923; assay: minimum bactericidal concentration, subculture on Mueller-Hinton agar, S. aureus; format: cell-based; details: ATCC25923, minimum dose which kills 99.9% of the organisms (MBC), overnight at 37°, read-out: MFC S. aureus
Method: as §1

[3] = tested on: Candida albicans ATCCe 10231; assay: minimum inhibiting concentration, microtitration in liquid medium, C. albicans; format: cell-based; details: ATCCE10231, RPMI + 20% foetal calf serum, overnight, inoculum 10^5 to 10^6 organisms/ml
Method: as §1

[4] = tested on: Candida albicans ATCCe 10231; assay: minimum fungicidal concentration, subculture on YM agar, C. albicans; format: cell-based; details: ATCCE10231, minimum dose which kills 99.9% of the organisms, YM agar, overnight at 37°, read-out: MFC C. albicans
Method: as §1

[5] = tested on: Staphylococcus aureus ATCC 25923; assay: minimum inhibiting concentration, microtitration in liquid medium, S. aureus; format: cell-based; details: ATCC25923, Mueller-Hinton, overnight, inoculum 10^5 to 10^6 organisms/ml, read-out: MIC S. aureus
Method: as §1

[6] = tested on: Candida tropicalis ATCC 13803; assay: minimum fungicidal concentration, subculture on YM agar, C. tropicalis; format: cell-based; details: ATCC13803, minimum dose which kills 99.9% of the organisms, YM agar, overnight at 37°, read-out: MFC C. tropicalis
Method: as §1

[7] = tested on: Salmonella typhimurium LT2, strain Demerec; assay: minimum inhibiting concentration, microtitration in liquid medium, S. typhimurium; format: cell-based; details: Salmonella enterica, Mueller-Hinton, overnight, inoculum 10^5 to 10^6 organisms/ml, read-out: MIC S. typhimurium
Method: as §1

[8] = tested on: Leydig tumor cells from mice (I-10, ATCC No. CCL83); assay: in vitro synthesis of steroids: 20α-hydroxy-4-pregnen-3-one secretion by Leydig tumor cells induced by cAMP; format: cell-based; details: 9.4×10^-7 M; for 20α-OH-4-pregnen-3-one (1): dibutyryl-cAMP 1×10^-4 M, 3 hours incubation with compound, control 1744, basal 785; for activity at 0.94 µM: Mus musculus, Leydig, relative to cells induced by cAMP in the absence of inhibitor, read-out: 20α-OH-4-pregnen-3-one (2) % enzyme activity relative to control
Source text: (§2) Ketoconazole and its derivatives reduce the plasma levels of testosterone by inhibiting certain enzymes involved in its biogenesis. Progesterone is a key intermediate in the biogenesis of steroid hormones as it leads especially to estradiol in the ovary and to testosterone in the testicles. The inhibiting power of ketoconazole and its derivatives on the enzyme chain for the biogenesis of steroid hormones may be assessed by measuring the conversion of cholesterol into progesterone. A method of determination which enables this property to be quantified is described below.
(§3) Leydig tumor cells from mice (I-10, ATCC No. CCL83) were grown in a HAM's F10 medium to which 15% of horse serum and 2.5% of foetal calf serum were added. These cells have the property of secreting progesterone and a product of reduction of the latter which is no longer metabolized, 20α-hydroxy-4-pregnen-3-one. This secretion of steroids is induced by the addition of cAMP in the form of its dibutyryl ester (N^6, O^2' -dibutyryladenosine 3', 5'-cyclic monophosphate sodium salt monohydrate (Sigma)). The cells are subcultured in 25 cm^2 falcon dishes and maintained under CO2 (10%). When these become confluent (±1 mg/ml proteins) the medium is replaced with fresh medium containing dibutyryl-cAMP (1×10^-4 M). After incubating for 1 hour with the cAMP, the ketoconazole or its derivatives are added (9.4×10^-7 M) to the culture medium. After incubating for a further period of 3 hours, the supernatants are collected and will be used for the analysis of steroids by HPLC. The cells are rinsed with PBS (phosphate buffered saline: NaCl 0.15M, KCl 2.7 mM, Na2 HPO4 -KH2 PO4 3 mM pH 7.4) and after treating with DOC (deoxycholic acid), the determination of proteins is carried out by the Lowry method.
(§4) For the determination of steroids, 2 ml of the culture medium are brought into contact with 5 ml of ether. The tubes are vortexed for 2 minutes. After freezing the aqueous phases in an isopropanol/solid carbon dioxide bath, the ether phase is collected and the ether is evaporated off under a stream of nitrogen at 30° C. The dry extract is then diluted in 150 μl of water and 150 μl of acetonitrile and centrifuged at 13,000 rpm for 10 minutes. 30 μl of the supernatant are injected into HPLC on a 4 mm diameter, 30 cm long μBondapack C18 column (WATERS). The mobile phase consists of 38% of water, 31% acetonitrile and 31% methanol. The flowrate is 2 ml/min and readings are taken at 245 nm.

[9] = tested on: Leydig tumor cells from mice (I-10, ATCC No. CCL83); assay: in vitro synthesis of steroids: progesterone secretion by Leydig tumor cells induced by cAMP; format: cell-based; details: 9.4×10^-7 M; for Progesterone (1): dibutyryl-cAMP 1×10^-4 M, 3 hours incubation with compound, control 3546, basal 554; for progesterone secretion, % of cAMP-induced control at 0.94 µM: Mus musculus, Leydig, relative to cells induced by cAMP in the absence of inhibitor, read-out: Progesterone (2) % enzyme activity relative to control
Source text: as §2, §3, §4

[10] = resorption: plasma concentration in rats after gastric administration; format: in vivo; details: rat, po, 1000 umol/kg, 100 μmols/0.5 ml of DMSO per 100 g of body weight, Candida tropicalis inhibition zones vs ketoconazole standard curve, read-out: plasma concentration of the antifungal product
Method: 100 μmols/0.5 ml of DMSO per 100 g of body weight of either ketoconazole (reference product) or oleylketoconazole (compound No. 7) are administered to rats by the gastric route. The animals are sacrificed with CO2, 1 h after the administration. Blood is sampled by cardiac puncture and centrifuged for 15 minutes at 2000 rpm to obtain the plasma.
A series of dilutions of the plasma samples are prepared in a 0.9% NaCl solution, diluting twice each time. 10 μl are sampled from each dilution and deposited on Whatman paper discs. The discs are placed in Petri dishes containing 15 ml of casitone agar covered with a layer containing 3 ml of a less dense agar mixed with 0.1 ml of an overnight culture of Candida tropicalis. After incubating overnight the growth inhibition zones around the disks are measured and compared with a standard curve prepared with ketoconazole under the same conditions.

Row | Structure (SMILES) | MIC [1] | MIC [3] | MIC [5] | MIC [7] | concentration at 1 h [10] | MBC [2] | MFC [4] | MFC [6] | 20α-OH-4-pregnen-3-one (1) [8] | activity at 0.94 µM [8] | Progesterone (1) [9] | progesterone secretion, % of cAMP-induced control at 0.94 µM [9]
1 | CCCCCCCCC=CCCCCCCCC(=O)NCC(=O)N1CCN(c2ccc(OCC3COC(Cn4ccnc4)(c4ccc(Cl)cc4Cl)O3)cc2)CC1 (stereo not drawn) [No. 8, Cis-4-[A]-1-(N-oleylglycyl)piperazine] | 53.1 µM | 31.2 µM |  |  |  |  | 62.5 µM (≈ 50.7 µg/mL) | > 100 µM |  |  |  | 
2 | CC(C)CC(N)C(=O)N1CCN(c2ccc(OCC3COC(Cn4ccnc4)(c4ccc(Cl)cc4Cl)O3)cc2)CC1 (stereo not drawn) [No. 9, Cis-4-[A]-1-(leucyl)piperazine] |  |  |  |  |  |  |  |  | 1725 ng of steroids/mg of cell prot | 99% | 2231 ng of steroids/mg of cell prot | 63%
3 | NC(Cc1ccccc1)C(=O)N1CCN(c2ccc(OCC3COC(Cn4ccnc4)(c4ccc(Cl)cc4Cl)O3)cc2)CC1 (stereo not drawn) [No. 10, Cis-4-[A]-1-(phenylalanyl)piperazine] |  |  |  |  |  |  |  |  | 605 ng of steroids/mg of cell prot | 35% | 323 ng of steroids/mg of cell prot | 9%

Second part, led by results:

Row | MIC [1] | MIC [3] | MIC [5] | MIC [7] | concentration at 1 h [10] | Structure (SMILES) | MBC [2] | MFC [4] | MFC [6] | 20α-OH-4-pregnen-3-one (1) [8] | activity at 0.94 µM [8] | Progesterone (1) [9] | progesterone secretion, % of cAMP-induced control at 0.94 µM [9]
4 | 15.2 µM | 19.8 µM | 50.8 µM (≈ 29.9 µg/mL) |  |  | O=C(O)CCC(=O)N1CCN(c2ccc(OCC3COC(Cn4ccnc4)(c4ccc(Cl)cc4Cl)O3)cc2)CC1 (stereo not drawn) [No. 4, Cis-4-[A]-1(succinyl)piperazine] | > 100 µM | 25 µM (≈ 14.7 µg/mL) | 50 µM (≈ 29.5 µg/mL) |  |  |  | 
5 | 25 µM | 25 µM | 50 µM (≈ 32.3 µg/mL) |  |  | O=C(O)CCC(=O)NCC(=O)N1CCN(c2ccc(OCC3COC(Cn4ccnc4)(c4ccc(Cl)cc4Cl)O3)cc2)CC1 (stereo not drawn) [No. 5, Cis-4-[A]-1-(N-succinylglycyl)piperazine] |  |  |  |  |  |  | 
6 | 0.78 µM | 3.13 µM |  |  |  | CC(=O)NCC(=O)N1CCN(c2ccc(OCC3COC(Cn4ccnc4)(c4ccc(Cl)cc4Cl)O3)cc2)CC1 (stereo not drawn) [No. 6, Cis-4-[A]-1-(N-acetylglycyl)piperazine] |  | 6.25 µM (≈ 3.68 µg/mL) | 12.5 µM (≈ 7.36 µg/mL) |  |  |  | 
7 | 8.78 µM | 10.2 µM | > 100 µM | > 100 µM | 57.3 µM | CCCCCCCCC=CCCCCCCCC(=O)N1CCN(c2ccc(OCC3COC(Cn4ccnc4)(c4ccc(Cl)cc4Cl)O3)cc2)CC1 (stereo not shown) [No. 7] | > 100 µM | 125 µM (≈ 94.2 µg/mL) | 250 µM (≈ 188 µg/mL) | 1497 ng of steroids/mg of cell prot | 86% | 2754 ng of steroids/mg of cell prot | 78%

Reference: US4789587A, “(1,3-dioxolan-2-yl-methyl)-1H-imidazoles as bactericidal and/or fungicidal agents” (IRE-Celltarg, S.A., priority 1986, dated 1988)
